Test [1] concerns the target T1, angiotensin-converting enzyme (Homo sapiens, UniProt P12821).
T1 construct: purchased Dojindo Laboratories ACE Kit-WST
The experiment in a line: Angiotensin I-converting enzyme-inhibiting activity by ACE Kit-WST (Dojindo Laboratories), residual activity. It is filed as biochemical. Conditions: for angiotensin-converting enzyme-inhibiting action brought about by the amino acid on addition of the cyclic dipeptide: cyclic dipeptide added in a given amount to the amino acid, summary of Tables 1 to 4. On the procedure: The enhancing effect of a cyclic dipeptide on the angiotensin-converting enzyme-inhibiting action of an amino acid was evaluated. Specifically, as for the inhibiting effects of amino acids and cyclic dipeptides, angiotensin I-converting enzyme-inhibiting activities were measured by using ACE Kit-WST (Dojindo Laboratories) according to the instruction manual attached to the kit. The amino acids were studied at a concentration of 1000 μM, 3000 μM, or 5000 μM, and the cyclic dipeptides were studied at a concentration of 20 μM, 50 μM, 100 μM, 250 μM, or 500 μM. Their-inhibiting activities were evaluated as the residual activity of angiotensin-converting enzyme calculated according to expression 1 given below. A control supplemented with distilled water instead of the aqueous cyclic dipeptide solution was used. Chemically synthesized samples were used as the cyclic dipeptides.
Residual activity (%)=(Absorbance at 450 nm from the cyclic dipeptide-added group/Absorbance from 450 nm from the control)×100 (Expression 1)

Test [2] relates to spontaneously hypertensive rats. Conditions: oral administration; cited from earlier work.
The mark [3] stands for this setting: amino acid alone, no cyclic dipeptide.

T1 sequence (P12821 30-1306, species assumed): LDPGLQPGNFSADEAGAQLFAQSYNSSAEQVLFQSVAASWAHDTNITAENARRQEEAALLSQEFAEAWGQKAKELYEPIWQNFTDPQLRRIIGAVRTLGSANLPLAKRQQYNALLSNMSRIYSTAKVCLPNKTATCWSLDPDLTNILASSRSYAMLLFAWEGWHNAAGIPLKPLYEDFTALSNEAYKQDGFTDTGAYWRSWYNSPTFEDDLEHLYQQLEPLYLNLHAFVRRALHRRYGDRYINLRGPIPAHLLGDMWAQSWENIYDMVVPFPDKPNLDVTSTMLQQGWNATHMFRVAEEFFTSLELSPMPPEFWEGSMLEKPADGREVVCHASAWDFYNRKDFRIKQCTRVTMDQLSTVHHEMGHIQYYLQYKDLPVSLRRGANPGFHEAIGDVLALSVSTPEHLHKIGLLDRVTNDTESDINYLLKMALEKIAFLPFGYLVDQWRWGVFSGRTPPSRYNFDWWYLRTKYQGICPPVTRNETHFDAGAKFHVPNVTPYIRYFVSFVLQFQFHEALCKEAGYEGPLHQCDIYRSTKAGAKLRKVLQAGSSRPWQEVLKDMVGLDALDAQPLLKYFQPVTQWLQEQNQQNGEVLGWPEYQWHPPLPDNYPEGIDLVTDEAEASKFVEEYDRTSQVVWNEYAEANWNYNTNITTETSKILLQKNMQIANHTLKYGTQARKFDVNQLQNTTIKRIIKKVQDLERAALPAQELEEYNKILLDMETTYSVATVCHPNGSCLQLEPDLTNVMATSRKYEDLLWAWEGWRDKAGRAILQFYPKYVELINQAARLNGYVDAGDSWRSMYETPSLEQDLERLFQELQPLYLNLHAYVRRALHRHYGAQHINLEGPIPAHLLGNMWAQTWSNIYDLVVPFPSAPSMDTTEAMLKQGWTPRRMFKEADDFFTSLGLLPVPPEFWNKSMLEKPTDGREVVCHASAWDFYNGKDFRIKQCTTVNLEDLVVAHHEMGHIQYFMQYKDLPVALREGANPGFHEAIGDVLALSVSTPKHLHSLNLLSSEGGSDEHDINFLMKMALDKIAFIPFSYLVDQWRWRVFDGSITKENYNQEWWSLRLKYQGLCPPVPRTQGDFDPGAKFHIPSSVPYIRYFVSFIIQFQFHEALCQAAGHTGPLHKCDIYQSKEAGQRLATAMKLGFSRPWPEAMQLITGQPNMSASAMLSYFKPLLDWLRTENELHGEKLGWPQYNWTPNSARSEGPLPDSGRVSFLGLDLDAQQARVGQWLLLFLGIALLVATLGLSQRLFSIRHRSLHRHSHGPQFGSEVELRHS

In test [1] (setting [3]), `N=C(N)NCCC[C@H](N)C(=O)O` [Arginine, arginine] registered a remaining activity at 1000 µM of 84.8% and a remaining activity at 5000 µM of 60.2%.
The corresponding values for `CC(C)C[C@H](N)C(=O)O` [Leucine, leucine] are 83.2% and 43.3%.
For the compound `C[C@@H](O)[C@H](N)C(=O)O` [Threonine, threonine], in test [1] (setting [3]), the remaining activity at 1000 µM was 86.6% and the remaining activity at 5000 µM came out at 69%.
Turning to `N[C@@H](Cc1ccc(O)cc1)C(=O)O` [Tyrosine, tyrosine], the remaining activity at 1000 µM in test [1] (setting [3]) was 94%. In test [1] (amino acid alone, 3000 μM, no cyclic dipeptide), this compound displayed a remaining activity at 3000 µM of 90.6%.
Consider `N[C@@H](Cc1c[nH]cn1)C(=O)O` [histidine], for which the mean arterial pressure result in test [2] is “decrease”.
For the compound cyclo-arginyl-tyrosine [Cyclo(Arg-Tyr)], the “angiotensin-converting enzyme-inhibiting action brought about by the amino acid on addition of the cyclic dipeptide” value in test [1] is listed as “enhanced”.
Still for that read-out and setting: to “cyclo-glutamyl-histidine [Cyclo(Glu-His)]” belongs “enhanced”.
The same measure, in the same setting: under cyclo-isoleucyl-serine [Cyclo(Ile-Ser)] stands “enhanced”.

One may read the remaining activity as what remains of the control signal, in per cent. Higher therefore signals much activity left.

The values above are taken from patent US20180185313A1, “COMPOSITION COMPRISING AMINO ACID AND CYCLIC DIPEPTIDE” (SUNTORY HOLDINGS LIMITED, priority 2015, published 2018).
